EC50 data for three compounds are collected here from patent US20060128662A1, “Novel compounds for treatment of obesity” (Novo Nordisk A/S, priority 2003, published 2006).

Structures are written as SMILES.

This test concerns FSK-4 cells. The test can be described thus: Assay (I): Glucose utilisation in a human epithelia cell line (FSK4 cells), D-(6-3H(N))-glucose. The class given is cell-based. Conditions: 24 hours incubation, Hill equation, read-out: GlucosFSK4 EC50. The protocol: Assay (I): Glucose Utilisation in a Human Epithelia Cell Line (FSK4 cells)
The ^3H-proton will first be released in the TCA cyclus and transported to the respiratory chain where it will be incorporated into water. The water is thereafter separated from the D-(6-^3H(N))-glucose by evaporation.
FSK-4 cells obtained from ATCC (Maryland, USA), are cultured in growth medium (McCoy's medium with the following addition 100 units/ml penicillin and streptomycin and 10% FCS (fetal calf serum)) at 37° C. and 5% CO2.
The cells are then incubated for another 24 hours at 37° C. and 5% CO2.
The half maximal concentration (EC50) and maximal efficacy (Emax) are calculated using the Hill equation in GraphPad Prism 3.0 (GraphPad software, Inc.). […] From the percentage increase in glucose utilisation the linear slope is calculated using the Michaelis-Menten equation.

In general, EC50 refers to the concentration that produces a half-maximal response. Turning to `CN1CCN(C(=O)c2ccc(S(=O)(=O)/C(C#N)=C/c3cc(C(C)(C)C)c(O)c(C(C)(C)C)c3)cc2)CC1` [Example 16, (E)-3-(3,5-Di-tert-butyl-4-hydroxy-phenyl)-2-[4-(4-methyl-piperazine-1-carbonyl)-benzenesulfonyl]-acrylonitrile], the concentration giving a half-maximal response (EC50) turned out to be 3.2 µM.
As to `CC(C)(C)c1ccc(S(=O)(=O)/C(C#N)=C/c2cc(C(C)(C)C)c(O)c(C(C)(C)C)c2)cc1` [Example 29, 2-(4-tert-Butyl-benzenesulfonyl)-3-(3,5-di-tert-butyl-4-hydroxy-phenyl)-acrylonitrile], the 50% effective concentration (EC50) came out at 2.9 µM.
Turning to `Cn1ccnc1S(=O)(=O)/C(C#N)=C/c1cc(C(C)(C)C)c(O)c(C(C)(C)C)c1` [Example 6, (E)-3-(3,5-Di-tert-butyl-4-hydroxy-phenyl)-2-(1-methyl-1H-imidazole-2-sulfonyl)-acrylonitrile], the EC50 was 8.4 µM.
